Molecules are shown by their SMILES. Values after ≈ are worked out from the molar mass of the structure shown.

One may read the MIC as the lowest concentration found to suppress growth. A higher MIC goes with a need for much substance. A word on the MIC99: it is an inhibitory concentration at the 99% level, which refers to growth in some studies and to a panel of isolates in others. The low end stands for greater potency, the high end for weaker potency. As usually defined, the IC50 is the concentration that inhibits the measured activity by half. What is called IC90 is the concentration needed for an effect of 90%. Lower therefore signals an effect from little substance.

Assay [1] has as its system Mycobacterium tuberculosis. As to the kind of experiment: Antitubercular activity against Mycobacterium tuberculosis H37Rv by Lowensteine-Jensen method. Format: functional.
Assay [2] has as its system Mycobacterium tuberculosis. As to the kind of experiment: Antitubercular activity against Mycobacterium tuberculosis H37Rv. Format: functional.
For assay [3], the system named is Mycobacterium tuberculosis. As to the kind of experiment: Antitubercular activity against Mycobacterium tuberculosis H37Rv by broth dilution method. In kind it is functional. Background: Dilution methods test growth across graded concentrations, often in twofold steps.
The test system of assay [4] is Mycobacterium tuberculosis. As to the kind of experiment: Antitubercular activity against Mycobacterium tuberculosis H37Rv ATCC 27294 at 6.25 ug/ml by BACTEC radiometric method relative to control. Format: functional.
In assay [5] the test system is Mycobacterium tuberculosis. As to the kind of experiment: Growth inhibition of Mycobacterium tuberculosis H37Rv ATCC 27294 at 6.25 ug/ml by BACTEC radiometric method relative to control. Format: functional. Conditions: read-out: GI.
Assay [6] deals with Mycobacterium tuberculosis. As to the kind of experiment: Growth inhibition of Mycobacterium tuberculosis H37Rv at 62.5 ug/ml by broth dilution method relative to control. Format: functional. Conditions: read-out: GI.
For assay [7], the system named is Mycobacterium tuberculosis. As to the kind of experiment: Antitubercular activity against Mycobacterium tuberculosis. Format: functional.
The test system of assay [8] is Mycobacterium tuberculosis. As to the kind of experiment: Potency index, ratio of pyrazinamide MIC to compound MIC for Mycobacterium tuberculosis. Format: functional.
In assay [9] the test system is Mycobacterium tuberculosis. As to the kind of experiment: Antitubercular activity against Mycobacterium tuberculosis spec.210. In kind it is functional.
Assay [10] relates to Mycobacterium tuberculosis. As to the kind of experiment: Antitubercular activity against Mycobacterium tuberculosis spec.192. In kind it is functional.
The next assay has as its target T1, Pantothenate synthetase (Mycobacterium tuberculosis, UniProt P9WIL5).
T1 sequence (P9WIL5 whole entry): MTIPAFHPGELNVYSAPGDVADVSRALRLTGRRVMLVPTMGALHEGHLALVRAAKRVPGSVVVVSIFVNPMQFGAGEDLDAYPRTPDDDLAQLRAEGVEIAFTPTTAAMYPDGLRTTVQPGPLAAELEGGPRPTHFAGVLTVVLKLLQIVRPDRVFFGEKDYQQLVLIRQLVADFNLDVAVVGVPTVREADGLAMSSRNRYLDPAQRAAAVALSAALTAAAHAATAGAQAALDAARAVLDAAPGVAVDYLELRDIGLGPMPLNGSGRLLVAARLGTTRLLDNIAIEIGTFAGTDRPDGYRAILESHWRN
As to the kind of experiment: Inhibition of Mycobacterium tuberculosis pantothenate synthetase.

The target in assay [11] is T2, Enoyl-[acyl-carrier-protein] reductase [NADH] (Mycobacterium tuberculosis, UniProt P9WGR1).
T2 sequence (P9WGR1 whole entry): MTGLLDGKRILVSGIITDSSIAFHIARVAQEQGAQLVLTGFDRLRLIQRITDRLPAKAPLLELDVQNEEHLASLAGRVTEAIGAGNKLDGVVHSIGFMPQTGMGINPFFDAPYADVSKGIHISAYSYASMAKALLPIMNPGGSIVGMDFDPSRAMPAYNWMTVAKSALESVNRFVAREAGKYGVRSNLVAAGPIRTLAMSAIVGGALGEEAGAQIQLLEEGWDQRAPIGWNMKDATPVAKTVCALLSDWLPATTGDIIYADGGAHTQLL
As to the kind of experiment: Inhibition of Mycobacterium tuberculosis InhA using DDCoA as substrate in presence of NADH by fluorimetric method.

Assay [12] has as its system Mycobacterium tuberculosis. As to the kind of experiment: Potency index, ratio of pyrazinamide MIC to compound MIC for Mycobacterium tuberculosis H37Rv. Format: functional.
The subject of another assay is HepG2. As to the kind of experiment: Cytotoxicity against human HepG2 cells. In kind it is cell-based.

In the case of `NNC(=O)c1ccncc1` [ISONIAZID], the figures for the MIC in assay [1], in assay [2] and in [3] were 0.2 to 4 µg/mL (≈ 1.46 to 29.2 µM), 0.03 µg/mL and 0.03 µg/mL (≈ 0.219 µM), respectively. Besides, the MIC99 in assay [4] was found to be 1.86 µM (≈ 0.255 µg/mL).
As for `CCOC(=O)C1=C(C)NC(=O)NC1c1cn(-c2ccccc2)nc1-c1ccc([N+](=O)[O-])cc1` (configuration not stated), in assay [3], the MIC was 0.02 µg/mL (≈ 0.0447 µM).
With `COc1nc2ccc(Br)cc2c2c1C(C)(OCC(O)Cn1ccc(-c3ccc(C)c(C)c3)n1)c1ccccc1-2` (configuration not stated), the inhibition of growth at 6.25 µg/mL in assay [5] lay within 40 to 88%. In assay [4], the MIC99 stood at 5 µM (≈ 2.92 µg/mL).
`CCOC(=O)C1=C(C)NC(=O)NC1c1cn(-c2ccccc2)nc1-c1ccc(F)cc1` (configuration not stated) yielded an MIC in [3] of 0.02 µg/mL (≈ 0.0476 µM).
In the case of `Cc1nn(-c2ccccc2)c2c1C(c1cccc([N+](=O)[O-])c1)c1c(nc[nH]c1=O)O2` (configuration not stated), in [6], the inhibition of growth at 62.5 µg/mL came to 98%.
With `N#Cc1ccc(-c2nnc(-c3n[nH]cc3-c3ccc(Cl)cc3)o2)cc1`, in assay [7], the MIC came to 25 µg/mL (≈ 71.9 µM). The Ratio in [8] stood at 4.
On to `COc1ccc(-n2cc(Cn3ncc4c3CCN(C(=O)Nc3ccccc3)C4)nn2)cc1`, for which the MIC in [2] was determined as 24.7 µM; in assay [9], 24.7 µM (≈ 10.6 µg/mL); in assay [10] it was 24.7 µM (≈ 10.6 µg/mL). Besides, the IC50 on Pantothenate synthetase amounted to 1010 nM.
Regarding `Cc1cc(C)n(Cc2ccc(C(=O)NCc3ccc(F)cc3Cl)cc2)n1`, the IC50 in assay [11] was found to be 40 nM.
For the compound `CC[C@@H](CO)NCCN[C@@H](CC)CO` [ETHAMBUTOL], the minimal inhibitory concentration (MIC) in assay [1] is 0.2 to 4 µg/mL (≈ 0.979 to 19.6 µM); in assay [2], 3.13 µg/mL.
In [2], `Cc1cc(-n2nc(C(=O)NCc3ccc(OC(F)(F)F)cc3)cc2-c2cccnc2)c2cccc(C(F)(F)F)c2n1` displayed an MIC of 3.13 µg/mL. Also, the Ratio in assay [12] came to 16.
Compound `O=C(NCCCn1ncc2ccc([N+](=O)[O-])cc21)N1C(=O)C(Cl)C1c1cccc(Br)c1` (configuration not stated) registered an MIC in assay [1] of 6.25 to 50 µg/mL (≈ 12.3 to 98.7 µM).
For the compound `Cc1nn(-c2ccccc2)c2c1C(c1cccc([N+](=O)[O-])c1)c1c(N)nc(=O)[nH]c1O2` (configuration not stated), the inhibition of growth at 62.5 µg/mL in [6] was determined as 98%.
Turning to `CC1=NN(C(=O)c2cc(-c3ccc(Cl)cc3)n[nH]2)C(=O)/C1=N\Nc1ccc(F)cc1`, the MIC in assay [2] turned out to be 0.35 µg/mL. The compound further displayed an IC50 in the assay with HepG2 of more than 500000 nM.
Take `Fc1ccc(-c2nnc(-c3n[nH]cc3-c3ccc(Cl)cc3)o2)cc1`: the MIC in assay [7] turned out to be 25 µg/mL (≈ 73.4 µM). Further, the Ratio in assay [8] is listed as 4.
Regarding `NC(=O)c1cnccn1` [PYRAZINAMIDE], the MIC is 0.2 to 4 µg/mL (≈ 1.62 to 32.5 µM) in [1], 50 µg/mL in [2] and 100 µg/mL (≈ 812 µM) in assay [7].
In the case of `O=C(NCCCn1ncc2ccc([N+](=O)[O-])cc21)N1C(=O)C(Cl)C1c1cccc(O)c1` (configuration not stated), the MIC in [1] is 6.25 to 50 µg/mL (≈ 14.1 to 113 µM).
For the compound `Nc1nc(-c2ccc(O)cc2)cc(-c2cn(-c3ccccc3)nc2-c2ccc(F)cc2)n1`, in assay [7], the 90% effect concentration (IC90) stood at 0.88 µg/mL (≈ 2.08 µM).
`O=C(NCCCn1ncc2ccc([N+](=O)[O-])cc21)N1C(=O)C(Cl)C1c1ccccc1Cl` (configuration not stated) yielded a minimum inhibitory concentration (MIC) in assay [1] of 6.25 to 50 µg/mL (≈ 13.5 to 108 µM).
`Cc1cc(-n2nc(C(=O)NCC(F)(F)F)cc2-c2cccnc2)c2cccc(C(F)(F)F)c2n1` had an MIC in assay [2] of 3.13 µg/mL. Further, the Ratio in [12] amounted to 16.
`CC1=NN(C(=O)c2cc(-c3ccc(Cl)cc3)n[nH]2)C(=O)/C1=N\Nc1ccc(Cl)cc1` came in with an MIC in assay [2] of 0.6 µg/mL. For the same compound, in the assay with HepG2, 306000 nM corresponded to half-maximal inhibition (IC50).
In assay [1], `O=C(NCCCn1ncc2ccc([N+](=O)[O-])cc21)N1C(=O)C(Cl)C1c1ccc(Br)cc1` (configuration not stated) came in with an MIC of 6.25 to 50 µg/mL (≈ 12.3 to 98.7 µM).
